Reference: PubChem BioAssay (NCI)
Values joined by “and” are separate entries in the source; they are usually repeats but may differ in a detail not shown here. Equal entries are not always repeated.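 48-hour exposure; five concentrations; linearly interpolated endpoints. GI50 = concentration required for 50% inhibition of growth. Definition used: TGI = concentration required for complete inhibition of growth.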

Tests used:
Assay in all cases: DTP human tumour cell line panel, 48 h
[1] = test system: BT-549 breast
[2] = test system: NCI/ADR-RES ovarian
[3] = test system: PC-3 prostate
[4] = test system: KM20L2 colon
[5] = test system: M19-MEL melanoma
[6] = test system: DMS 114 small cell lung
[7] = test system: MDA-N

Structure (SMILES)	GI50 [1]	TGI [1]	GI50 [2]	TGI [2] [µM]	GI50 [3]	TGI [3]	TGI [4] [µM]	TGI [5] [µM]	TGI [6] [µM]	TGI [7] [µM]
Nc1c(C(=O)Nc2ccccn2)sc2nc3c(cc12)C(=O)CCC3	0.332 µM	> 100 µM	0.929 µM	> 100	1.43 µM	> 100 µM	–	–	–	–
Cc1nc2c(Br)cc(Br)cc2c(=O)n1-c1nnc(-c2cccc(Cl)c2Cl)c(N)n1	29.3 µM	> 100 µM	13.6 µM	37.5	23.6 µM	> 100 µM	–	–	–	–
N#CC(I)CS(=O)(=O)c1ccccc1 (stereo unspecified)	18.8 µM	32.9 µM	17.5 µM	35.1	17 µM	32.5 µM	–	–	–	–
COc1ccc(Cl)cc1NC(=O)c1ccc(NC2=C(Cl)C(=O)N(Cc3ccccc3)C2=O)cc1	28.7 µM	> 100 µM	55.1 µM	> 100	52.6 µM	> 100 µM	–	–	–	–
Cc1nc2sccn2c1-c1nc2sccn2c1/C=C1/C(=O)Nc2ccccc21	1.85 µM	7.27 µM	9.08 µM	> 100	2.32 µM	46.4 µM	–	–	–	–
Cc1cccc(NC2=C(Cl)C(=O)c3nc(C)ccc3C2=O)c1	1.41 µM	2.77 µM	1.58 µM	4.14	1.29 µM	4.8 µM	–	–	–	–
O=Cc1cc2c(cc1-c1cc3c(cc1C=O)OCO3)OCO2	–	–	–	–	–	–	> 100	> 100	> 100	–
CN(C)CCNC(=O)Cc1ccccc1Nc1c(Cl)cccc1Cl	–	–	–	–	–	–	13.9	28.5	33.1	–
COc1cc2c(cc1OCCCN1CCN(CCCOc3cc4c(cc3OC)C(=O)N3CC(F)(F)C[C@H]3C=N4)CC1)N=C[C@@H]1CC(F)(F)CN1C2=O	1.95 µM	5.36 µM	25.2 µM	72.9	3.06 µM	9.74 µM	–	–	–	–
CCCCCCCCSC1=C(Cl)C(=O)C(OC)=C(OC)C1=O	–	31.4 µM	–	> 100	–	31.9 µM	–	–	–	17.6
COC(=O)C1=CN(CC2=CC(=O)C(C)=CC2=O)C=C(C(=O)OC)C1c1ccccc1OC	17.4 µM	41 µM	17.4 µM	34.8	14.9 µM	29.8 µM	–	–	–	–
COC(=O)c1c2c(c(C)[n+]([O-])c1C)C(=O)C(NCc1ccc(Br)cc1)=CC2=O	1.73 µM	3.52 µM	1.97 µM	7.03	–	–	–	–	–	–
COc1cccc2c1O/C(=C\c1ccc([N+](=O)[O-])s1)C2=O	1.68 µM	3.27 µM	3.92 µM	> 100	1.7 µM	> 21.3 µM	–	–	–	–
O=S(=O)(OI(OI(OS(=O)(=O)C(F)(F)F)c1ccccc1)c1ccccc1)C(F)(F)F	–	–	–	–	–	–	> 100	> 100	55	–
COC(=O)/C=C/c1cc(OC(C)=O)c2c(c1)C(C(=O)OC)C(c1ccc(OC(C)=O)c(OC(C)=O)c1)O2 (stereo unspecified)	0.127 µM	2.27 µM	0.098 µM	> 100	0.371 µM	> 49 µM	–	–	–	–
O=C(O)c1ccc(CNCc2ccccc2)cc1	–	> 100 µM	–	> 100	–	> 100 µM	–	–	–	> 100
C=C(C)C(C1C=C(CCC(C=O)=C(C)C)C(=O)O1)C1(OC)C=C(C)C(=O)O1 (stereo unspecified)	–	–	> 100 µM	> 100	> 100 µM	> 100 µM	–	–	–	–
CCOC(=O)Nc1c(C)nc2ccccn12	> 100 µM	> 100 µM	–	–	> 100 µM	> 100 µM	–	–	–	–
O=[N+]([O-])c1ccccc1N=Nc1c(O)[nH]c2c(Cl)cc(Cl)cc12	–	30.5 µM	–	> 100	–	> 100 µM	–	–	–	> 100
C=C(C)[C@@H]1CC[C@]2(CN)CC[C@]3(C)[C@H](CC[C@@H]4[C@@]5(C)CCCNC(C)(C)[C@@H]5CC[C@]43C)[C@@H]12	–	–	–	–	1.77 µM	3.2 µM	–	–	–	–
C=C(CN(C)Cc1ccccc1)c1ccc(NC(=O)c2ccc(C(=C)CN(C)Cc3ccccc3)cc2)cc1	> 100 µM	> 100 µM	34.8 µM	> 100	11 µM	23 µM	–	–	–	–
O=C(CC(=O)Nc1ccccc1)NNC(Sc1ccccc1)c1cc(N=Nc2ccc(Br)cc2)ccc1O (stereo unspecified)	–	> 10 µM	–	> 10	–	> 10 µM	–	–	–	> 10
Cc1cc(C(=O)CSC(=S)SC(C)(C)C)ccc1Cl	–	53.1 µM	–	42.1	–	95.8 µM	–	–	–	36.8
C=CC12CCN(CC1)C(C(O)c1ccnc3ccc(OC)cc13)C2 (stereo unspecified)	> 100 µM	> 100 µM	> 100 µM	> 100	> 100 µM	> 100 µM	–	–	–	–

Structure (SMILES)	GI50 [1]	TGI [1]	GI50 [2]	TGI [2] [µM]	GI50 [3]	TGI [3]	TGI [4] [µM]	TGI [5] [µM]	TGI [6] [µM]	TGI [7] [µM]
O=C(Nc1nc(-c2c[nH]c3ccccc23)cs1)c1n[nH]c(=O)c2ccccc12	3.89 µM	> 81.2 µM	6.74 µM	78.6	10.2 µM	> 100 µM	–	–	–	–
CCCCCCCC(=O)OCC1OC(n2cc(F)c(=O)[nH]c2=O)C(N)C(OC(=O)CCCCCCC)C1O (stereo unspecified)	–	–	–	–	–	–	33.7	36	–	–
CN(C)CCN1CCC(Cc2ccccc2)CC1	> 80 µM	> 80 µM	> 80 µM	> 80	> 80 µM	> 80 µM	–	–	–	–
COc1cc2c3c(n(C)c(=O)c2cc1OC)-c1cc2c(cc1C3=O)OCO2	–	> 100 µM	–	> 100	–	> 100 µM	–	–	–	> 100
CCSc1nc(N=Cc2ccccc2O)c2cn[nH]c2n1	40.6 µM	> 100 µM	20.3 µM	63.6	28 µM	72.7 µM	–	–	–	–
O=C(CNc1ccc(Cl)cc1Cl)Nn1c(-c2ccccc2)nc2ccccc2c1=O	–	34.5 µM	–	52.9	–	29.9 µM	–	–	–	34.5
CO[C@@H]1CC[C@]2(C)OC[C@H](C)[C@@H]3C[C@@H](C)[C@@H](OC(C)=O)[C@@H]4[C@H]3[C@@H]2O[C@H]4C[C@@]1(C)O	> 100 µM	> 100 µM	> 100 µM	> 100	–	–	–	–	–	–
CSC[C@H](NC(=O)COc1cccc2cnccc12)C(=O)NC(Cc1ccccc1)C(O)C(=O)N1CSC[C@H]1C(=O)NC(C)(C)C (stereo partly specified)	–	> 100 µM	–	> 100	–	> 100 µM	–	–	–	> 100
O=C(Nc1ncc(Cc2cccc(C(F)(F)F)c2)s1)c1ccc2c(c1)OCCO2	0.449 µM	> 100 µM	0.251 µM	6.96	0.341 µM	> 100 µM	–	–	–	–
NC(=O)c1cc(I)ccc1NC(=O)/C=C/c1ccccc1	2.39 µM	27.5 µM	0.351 µM	3.92	0.605 µM	> 100 µM	–	–	–	–
COc1ccc(CNc2c3ccccc3nc3ccccc23)cc1F	4.88 µM	18.3 µM	2.58 µM	10.3	3.14 µM	12 µM	–	–	–	–
CCn1cc(-c2ccnc3[nH]c(-c4cccc(CN(C)C)c4)cc23)c(-c2ccc(NC(=O)N(C)C)cc2)n1	1.45 µM and 2.3 µM	17.3 µM and > 10 µM	23.4 µM and > 10 µM	> 100	1.46 µM and 3.02 µM	27 µM and > 10 µM	–	–	–	–
CCN(Cc1c(F)cccc1OC)c1ccc(CO)c(Cl)c1	17.6 µM	36.9 µM	13.3 µM	43.1	17.1 µM	58.4 µM	–	–	–	–
CCOC(=O)c1c(C)c2c(n1Cc1ccccc1)CSCC2=O	21 µM	77.6 µM	16.7 µM	51.4	13.6 µM	68.1 µM	–	–	–	–
C[C@H](CCOc1cccc(CC(=O)O)c1)N(Cc1cccc(C(F)(F)F)c1Cl)CC(c1ccccc1)c1ccccc1	5.39 µM	20 µM	6.97 µM	21.3	4.64 µM	17.4 µM	–	–	–	–
O=[N+]([O-])c1cccnc1N=Nc1c(O)[nH]c2ccccc12	–	25.4 µM	–	> 100	–	63 µM	–	–	–	> 100
CNc1cc2oc(=O)cc(C)c2cc1C	–	> 100 µM	–	> 100	–	> 100 µM	–	–	–	> 100
CC[C@]1(O)C[C@H]2CN(CCc3c([nH]c4ccccc34)C(C(=O)OC)(c3cc4c(cc3OC)N(C)[C@H]3[C@@](O)(C(=O)OC)[C@H](OC(C)=O)[C@]5(CC)[C@@H]6C[C@@H]6CN6CC[C@]43[C@@H]65)C2)C1 (stereo partly specified)	0.0156 µM	0.683 µM	0.101 µM	0.797	0.00296 µM	> 11.8 µM	–	–	–	–
CCN(CCNS(C)(=O)=O)c1ccc(N)c(C)c1	10.1 µM	22.2 µM	11.8 µM	40.9	–	–	–	–	–	–
Cc1ccc2c(c1)c1ccc3c(c1n2C)C(=O)C=CC3=O	–	2.83 µM	–	> 7.53	–	> 9.27 µM	–	–	–	3.65
NNc1ncnc2nc[nH]c12	4.22 µM	> 94.3 µM	3.37 µM	> 100	6.07 µM	> 100 µM	–	–	–	–
NCCCn1c2c(c3ccc([N+](=O)[O-])cc3c1=O)C(=O)c1cc(I)ccc1-2	0.931 µM	2.51 µM	0.0416 µM	1.88	0.563 µM	2.07 µM	–	–	–	–
CN(Cc1cnc2nc(N)nc(N)c2n1)c1ccc(C(=O)N[C@@H](CCS(=O)(=O)O)C(=O)O)cc1	–	> 100 µM	–	> 100	–	> 100 µM	–	–	–	> 100
